This test addresses T1, EGFR (Homo sapiens, UniProt P00533).
T1 construct: A549 cells were chosen due to their elevated expression of EGFR; endogenous in cells; host or cells: A549
The test is described as follows: Western blot of EGF-induced EGFR phosphorylation in A549 cells. It is filed as cell-based. As to the method:
A549 cells were chosen due to their elevated expression of EGFR.
A549 cells were seeded into a 6-well plate at a concentration of 1×10^5 cells/well. After 12 h attachment at 37° C. and 5% CO2, the cells were starved overnight in serum-reduced DMEM followed by treatment with different concentration of M-2-2 for 4 h. […] Subsequently, the cells were incubated on ice for 10 min and centrifuged at 14,000×g at 4° C. for 10 min. […] The experiments were conducted in triplicates and repeated for three times.
For orientation: Immunoblotting shows a protein as a band on a membrane.

T1 sequence (P00533 25-1210): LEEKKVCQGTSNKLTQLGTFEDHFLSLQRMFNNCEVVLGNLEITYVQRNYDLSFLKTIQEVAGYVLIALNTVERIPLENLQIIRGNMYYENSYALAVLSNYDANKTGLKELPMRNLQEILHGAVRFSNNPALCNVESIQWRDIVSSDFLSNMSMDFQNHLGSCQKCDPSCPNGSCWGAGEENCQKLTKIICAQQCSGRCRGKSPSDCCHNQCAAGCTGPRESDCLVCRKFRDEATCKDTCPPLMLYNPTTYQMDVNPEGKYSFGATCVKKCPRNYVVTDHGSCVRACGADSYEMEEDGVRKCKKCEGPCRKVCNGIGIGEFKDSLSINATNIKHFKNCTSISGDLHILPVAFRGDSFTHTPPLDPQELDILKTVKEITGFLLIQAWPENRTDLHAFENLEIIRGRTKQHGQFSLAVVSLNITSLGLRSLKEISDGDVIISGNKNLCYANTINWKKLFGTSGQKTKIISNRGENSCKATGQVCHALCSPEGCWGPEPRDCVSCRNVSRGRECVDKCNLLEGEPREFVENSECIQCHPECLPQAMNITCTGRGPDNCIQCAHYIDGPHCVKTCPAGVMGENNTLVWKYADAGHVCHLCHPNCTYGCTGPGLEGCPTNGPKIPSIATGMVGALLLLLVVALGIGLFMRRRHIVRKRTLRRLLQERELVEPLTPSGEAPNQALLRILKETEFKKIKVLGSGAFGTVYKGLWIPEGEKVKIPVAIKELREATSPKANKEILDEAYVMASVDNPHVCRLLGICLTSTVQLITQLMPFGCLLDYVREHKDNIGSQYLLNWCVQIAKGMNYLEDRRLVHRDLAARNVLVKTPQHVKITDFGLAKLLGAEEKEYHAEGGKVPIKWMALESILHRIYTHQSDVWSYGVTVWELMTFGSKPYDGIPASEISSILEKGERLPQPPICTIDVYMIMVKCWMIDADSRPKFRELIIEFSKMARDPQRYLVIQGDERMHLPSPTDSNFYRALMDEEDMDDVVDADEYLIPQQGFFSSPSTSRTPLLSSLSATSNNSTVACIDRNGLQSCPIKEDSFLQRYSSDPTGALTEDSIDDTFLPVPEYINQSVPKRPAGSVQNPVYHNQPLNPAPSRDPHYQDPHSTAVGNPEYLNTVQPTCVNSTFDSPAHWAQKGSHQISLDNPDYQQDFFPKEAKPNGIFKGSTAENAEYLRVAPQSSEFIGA

For `CC[C@H]1CN(C(=O)CCC2CCCCC2)CC(=O)N[C@@H](CC)CN(C(=O)Cc2ccc3c(c2)OCO3)CC(=O)N[C@@H](CC(C)C)CN(CC(N)=O)C(=O)CCSCc2ccc(cc2)C(=O)N[C@@H](CC(C)C)CN(C(=O)Cc2ccc3c(c2)OCO3)CC(=O)N1` [M-2-2], the “effect on phosphorylation level of EGFR (P-EGFR) in the presence of EGF” value (starved A549 cells, 20 μM, 4 h pretreatment, then 100 ng/mL EGF, western blot, P-EGFR/GAPDH) is listed as “enhance the activation of EGFR”. Besides, the “effect on downstream signal transduction of EGF stimulated EGFR” value (western blot with anti-phosphorylated AKT and ERK, concentration not given) is listed as “enhance”.

These data come from patent US20230008571A1, “CYCLIC COMPOUNDS FOR TREATING CARDIOVASCULAR DISORDERS AND WOUNDS” (University of South Florida, priority 2021, published 2023).
